Assay results reported in patent US20240216401A1, “COMBINATION THERAPY BY USING AKR1C3-ACTIVATED COMPOUND WITH IMMUNE CHECKPOINT INHIBITOR” (OBI Pharma, Inc., priority 2021, published 2024).
Several values for one entry are separate records, joined by “and”; a condition that tells them apart may be missing. Equal values may be shown once.

Assays:
[1] = tested on: CTL cells (CD45^+CD8^+ T cells) in tumor-infiltrating lymphocytes; experiment: Example 2: flow cytometry, percentage of CTL cells in TILs; type: in vivo, Mus musculus; settings: G3: 1 mg/kg
Experimental: (§1) Mice were sacrificed by CO2 euthanasia at the end of the study duration, and the connective tissue around tumor was resected. The tumor samples were then weighed and cut equally into three sections if the tumor weight over 400 mg. The tumor tissue was prepared for the isolation of tumor-infiltrating lymphocytes (TILs). The rest of one section was fixed in 10% formaldehyde and embedded in paraffin; the other was stored at a temperature below −70° C.
(§2) The tumor samples were dissected into smaller fragments using scalpels and then digested with a cocktail of collagenase, DNase I, and Hyaluronidase (Collagenase #C5138, DNase I #D5025, Hyaluronidase #H6254, SigmaAldrich) for at least 2 hours.
(§3) Cells were stained with the fluorescently conjugated surface antibodies and incubated for 30 minutes at 4° C., and then resuspended in staining buffer for flow cytometric analysis. Flow cytometry was done using a Navios EX Flow Cytometer (Beckman Coulter). Data were analyzed using the Kaluza Analysis Software (Beckman Coulter).

[2] = tested on: Calreticulin cells in tumor-infiltrating lymphocytes; experiment: Example 2: flow cytometry, percentage of Calreticulin cells in TILs; type: in vivo, Mus musculus; settings: individual mice and group Mean; for CD45^− live cells (CD45^−ViaKrome405^weak) Cell count / Calreticulin cells (CD45^− Calreticulin^+) Cell count / Total CD45^− cells (CD45^−) Cell count: Cell count = Total cell × Total % × 10; for CD45^− live cells (CD45^−ViaKrome405^weak) CTL Gated % / CD45^− live cells (CD45^−ViaKrome405^weak) Total % / Calreticulin cells (CD45^− Calreticulin^+) CTL Gated % / Calreticulin cells (CD45^− Calreticulin^+) Total % / Total CD45^− cells (CD45^−) CD45^+ Gated % / Total CD45^− cells (CD45^−) Total %: TILs from tumor
Experimental: as §1, §2, §3

[3] = G2: OBI-3424 0.3 mg/kg, 0.3 mg/kg
[4] = G2: OBI-3424 0.3 mg/kg, 0.3 mg/kg, group mean
[5] = G3: OBI-3424 1 mg/kg, 1 mg/kg, group mean

## C[C@H](OP(=O)(N1CC1)N1CC1)c1ccc([N+](=O)[O-])c(Oc2cccc(C(=O)N(C)C)c2)c1 [OBI-3424, (S)-1-(3-(3-N,N-dimethylaminocarbonyl)phenoxyl-4-mtrophenyl)-1-ethyl-N,N′-bis(ethylene)phosphoramidate]
[1]; group mean
  PD-1^+ CTL cells (CD45^+CD8^+ PD-1^+) Total %: 24.78%
[1]; individual mice
  CD25^+ CTL cells (CD45^+ CD8^+CD25^+) Cell count (×10^5): 0.43 ×10^5 and 1.29 ×10^5 and 0.89 ×10^5 and 1.55 ×10^5 and 1.91 ×10^5 and 1.90 ×10^5
  CD25^+ CTL cells (CD45^+CD8^+ CD25^+) CTL Gated %: 3.38% and 2.85% and 4.07% and 7.29% and 6.05% and 7.84%
  CD25^+ CTL cells (CD45^+CD8^+ CD25^+) Total %: 1.49% and 1.02% and 1.26% and 1.57% and 2.57% and 2.34%
  CD69^+ CTL cells (CD45^+ CD8^+CD69^+) CTL Gated %: 80.80% and 70.50% and 83.69% and 59.32% and 76.33% and 60.89%
  CD69^+ CTL cells (CD45^+ CD8^+CD69^+) Cell count (×10^5): 10.34 ×10^5 and 31.84 ×10^5 and 18.33 ×10^5 and 12.61 ×10^5 and 24.09 ×10^5 and 14.69 ×10^5
  CD69^+ CTL cells (CD45^+ CD8^+CD69^+) Total %: 35.67% and 25.23% and 25.96% and 12.76% and 32.38% and 18.14%
  CTL cells (CD45^+CD8^+) CD45^+ Gated %: 66.02% and 53.39% and 62.97% and 38.03% and 65.33% and 49.11%
  CTL cells (CD45^+CD8^+) Cell count (×10^5): 12.68 ×10^5 and 40.30 ×10^5 and 21.83 ×10^5 and 22.61 ×10^5 and 32.02 ×10^5 and 23.10 ×10^5
  CTL cells (CD45^+CD8^+) Total %: 31.93% and 30.92% and 22.88% and 43.04% and 28.52%
  Granzyme B^+ CTL cells (CD45^+ CD8^+GrB+) CTL Gated %: 90.46% and 99.18% and 89.16% and 96.01% and 95.94% and 58.25%
  Granzyme B^+ CTL cells (CD45^+ CD8^+GrB+) Cell count (×10^5): 11.76 ×10^5 and 39.25 ×10^5 and 20.44 ×10^5 and 21.59 ×10^5 and 31.75 ×10^5 and 14.00 ×10^5
  Granzyme B^+ CTL cells (CD45^+ CD8^+GrB+) Total %: 40.55% and 31.10% and 28.95% and 21.85% and 17.29%
  IFN-γ^+ CTL cells (CD45^+ CD8^+ IFN-γ^+) CTL Gated %: 0.87% and 0.63% (2×) and 0.85% and 0.20% and 0.61%
  IFN-γ^+ CTL cells (CD45^+ CD8^+ IFN-γ^+) Cell count (×10^5): 0.11 ×10^5 and 0.25 ×10^5 and 0.20 ×10^5 and 0.1 ×10^5 and 0.07 ×10^5 and 0.15 ×10^5
  IFN-γ^+ CTL cells (CD45^+ CD8^+ IFN-γ^+) Total %: 0.39% and 0.20% and 0.28% and 0.14% and 0.09% and 0.18%
  PD-1^+ CTL cells (CD45^+CD8^+ PD-1^+) CTL Gated %: 58.64% and 62.98% and 80.96% and 86.30% and 72.97% and 93.75%
  PD-1^+ CTL cells (CD45^+CD8^+ PD-1^+) Cell count (×10^5): 7.44 ×10^5 and 25.38 ×10^5 and 17.68 ×10^5 and 19.51 ×10^5 and 23.37 ×10^5 and 21.66 ×10^5
  PD-1^+ CTL cells (CD45^+CD8^+ PD-1^+) Total %: 25.64% and 20.11% and 25.04% and 19.75% and 31.41% and 26.74%
[2]; [3]
  CD45^− live cells (CD45^−ViaKrome405^weak) Cell count: 39.37 ×10^5 and 25.28 ×10^5 and 83.81 ×10^5 and 1.35 ×10^5 and 29.90 ×10^5 and 5.87 ×10^5
  Calreticulin cells (CD45^− Calreticulin^+) Cell count: 5.54 ×10^5 and 1.27 ×10^5 and 10.26 ×10^5 and 0.06 ×10^5 and 1.11 ×10^5 and 0.19 ×10^5
  Total CD45^− cells (CD45^−) Cell count: 70.58 ×10^5 and 45.89 ×10^5 and 130.41 ×10^5 and 2.18 ×10^5 and 65.25 ×10^5 and 10.35 ×10^5
  CD45^− live cells (CD45^−ViaKrome405^weak) CTL Gated %: 55.78% and 55.07% and 64.29% and 61.79% and 45.83% and 56.69%
  CD45^− live cells (CD45^−ViaKrome405^weak) Total %: 20.24% and 12.36% and 15.52% and 6.30% and 12.13% and 8.10%
  Calreticulin cells (CD45^− Calreticulin^+) CTL Gated %: 14.09% and 5.02% and 12.21% and 4.51% and 3.69% and 3.21%
  Calreticulin cells (CD45^− Calreticulin^+) Total %: 2.85% and 0.62% and 1.90% and 0.28% and 0.45% and 0.26%
  Total CD45^− cells (CD45^−) CD45^+ Gated %: 50.59% and 29.66% and 28.87% and 12.41% and 31.01% and 21.40%
  Total CD45^− cells (CD45^−) Total %: 36.29% and 22.44% and 24.15% and 10.20% and 26.47% and 14.28%
[2]; [4]
  CD45^− live cells (CD45^−ViaKrome405^weak) Cell count: 30.93 ×10^5
  Calreticulin cells (CD45^− Calreticulin^+) Cell count: 3.07 ×10^5
  Total CD45^− cells (CD45^−) Cell count: 54.11 ×10^5
  CD45^− live cells (CD45^−ViaKrome405^weak) CTL Gated %: 56.58%
  CD45^− live cells (CD45^−ViaKrome405^weak) Total %: 12.44%
  Calreticulin cells (CD45^− Calreticulin^+) CTL Gated %: 7.12%
  Calreticulin cells (CD45^− Calreticulin^+) Total %: 1.06%
  Total CD45^− cells (CD45^−) CD45^+ Gated %: 28.99%
  Total CD45^− cells (CD45^−) Total %: 22.31%
[2]; G3: OBI-3424 1 mg/kg, 1 mg/kg
  CD45^− live cells (CD45^−ViaKrome405^weak) Cell count: 1.72 ×10^5 and 9.67 ×10^5 and 7.88 ×10^5 and 9.07 ×10^5 and 5.22 ×10^5 and 6.72 ×10^5
  Calreticulin cells (CD45^− Calreticulin^+) Cell count: 0.05 ×10^5 and 0.25 ×10^5 (2×) and 0.88 ×10^5 and 0.19 ×10^5 and 0.12 ×10^5
  Total CD45^− cells (CD45^−) Cell count: 2.45 ×10^5 and 15.22 ×10^5 and 11.73 ×10^5 and 11.65 ×10^5 and 8.38 ×10^5 and 8.94 ×10^5
  CD45^− live cells (CD45^−ViaKrome405^weak) CTL Gated %: 70.28% and 63.52% and 67.13% and 77.84% and 62.30% and 75.12%
  CD45^− live cells (CD45^−ViaKrome405^weak) Total %: 5.94% and 7.66% and 11.16% and 9.18% and 7.02% and 8.30%
  Calreticulin cells (CD45^− Calreticulin^+) CTL Gated %: 2.90% and 2.61% and 11.18% and 2.75% and 3.65% and 1.83%
  Calreticulin cells (CD45^− Calreticulin^+) Total %: 0.17% and 0.20% and 1.25% and 0.25% and 0.26% and 0.15%
  Total CD45^− cells (CD45^−) CD45^+ Gated %: 9.67% and 13.99% and 19.95% and 13.15% and 12.84% and 12.22%
  Total CD45^− cells (CD45^−) Total %: 8.45% and 12.06% and 16.62% and 11.79% and 11.27% and 11.04%
[2]; [5]
  CD45^− live cells (CD45^−ViaKrome405^weak) Cell count: 6.71 ×10^5
  Calreticulin cells (CD45^− Calreticulin^+) Cell count: 0.29 ×10^5
  Total CD45^− cells (CD45^−) Cell count: 9.73 ×10^5
  CD45^− live cells (CD45^−ViaKrome405^weak) CTL Gated %: 69.37%
  CD45^− live cells (CD45^−ViaKrome405^weak) Total %: 8.21%
  Calreticulin cells (CD45^− Calreticulin^+) CTL Gated %: 4.15%
  Calreticulin cells (CD45^− Calreticulin^+) Total %: 0.38%
  Total CD45^− cells (CD45^−) CD45^+ Gated %: 13.64%
  Total CD45^− cells (CD45^−) Total %: 11.87%
